Patent publication US20090088380A1, “GHRH ANALOGS AND THERAPEUTIC USES THEREOF” (priority 2007, published 2009)
Blank lines part the entries; values can stand above or below the compound they belong to. Non-standard residues stand in square brackets, D forms with d. Residues, ends and D or L forms follow the SMILES beside them.

What was measured:
rat GHRH receptor (rat) = rat GHRH receptor (rat) (UniProt Q02644); test: competition with [125I-Tyr10]hGHRH(1-44)-NH2, rat anterior pituitary membrane preparations
[1] = target: human GHRH receptor (human) (UniProt Q02643); test: competition with [125I-Tyr10]hGHRH(1-44)NH2, BHK cell membrane preparations expressing the human GHRH receptor; conditions: for Relative binding affinity (R1) in comparison with hGHRH(1-29)NH2: scale: ratio IC50 of hGHRH
human GHRH receptor = target: T1, human GHRH receptor (Homo sapiens, UniProt Q02643); test: 125I-GHRH competitive binding assay in BHK cell membrane preparations; conditions: in comparison with hGHRH(1-29)NH2; ratio IC50 hGHRH(1-29)-NH2/IC50 analog
T1 construct: expressed in transfected cells; host or cells: BHK (baby hamster kidney) 570 cells, membrane preparations
T1 sequence (Q02643 23-423): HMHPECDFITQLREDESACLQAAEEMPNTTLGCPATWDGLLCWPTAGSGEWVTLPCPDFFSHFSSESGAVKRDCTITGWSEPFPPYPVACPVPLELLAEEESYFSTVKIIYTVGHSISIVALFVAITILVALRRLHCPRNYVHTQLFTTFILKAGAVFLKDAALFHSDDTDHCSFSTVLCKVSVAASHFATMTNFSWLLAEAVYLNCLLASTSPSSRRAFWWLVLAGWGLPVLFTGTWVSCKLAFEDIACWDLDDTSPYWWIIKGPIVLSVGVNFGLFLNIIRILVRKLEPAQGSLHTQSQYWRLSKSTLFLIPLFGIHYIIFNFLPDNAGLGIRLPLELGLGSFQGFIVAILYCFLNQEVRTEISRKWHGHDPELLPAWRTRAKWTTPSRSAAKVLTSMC
Method: Non specific binding was determined in presence of 1 μM hGHRH(1-29)NH2. Incubation was carried out at equilibrium (23° C., 60 min) and stopped by centrifugation (12,000 g, 5 min, at 4° C.). The radioactivity content in pellets was determined by gamma counting. The affinity of hGHRH(1-29) NH2 was tested in each experiment to assess the validity of the assay and determine the relative affinity of the analogs.
Values represent the mean±SEM of 3 experiments performed in triplicate for the analogs and the mean±SEM of 2 experiments performed in triplicate for hGHRH(1-44) NH2.
For the binding assay results presented in Tables 8 to 11, values represent the mean±SEM of 8 independent experiments performed in triplicate for the analogs and the mean±SEM of 4 experiments performed in triplicate for hGHRH(1-29)NH2. […] The relative affinity was obtained by taking the ratio IC50 of hGHRH (1-29)-NH2/IC50 analog.

[2] = In vitro proteolysis assay in rat serum; type: in vitro ADME; conditions: for Residual concentration (% of initial concentration): incubation 0 min
Method: (§2) Proteolysis was stopped by adding 800 μl of ice-cold stop buffer (potassium-phosphate buffer, acidified to pH 0.8 with trifluoroacetic acid (TFA) and boiling 5 min (rat serum only). After centrifugation (12000 g, 5 min, 4° C.) (rat serum only), serum-peptide mixtures were passed through a conditioned Sep-Pak C-18 cartridge to extract native GHRH or a GHRH analog residual concentrations from serum proteins. The native GHRH or the analog was eluted in 2 ml of 50% acetonitrile-0.01% TFA/50% 0.01% aqueous TFA. 200 μl of extracted peptide, representing 1 μg of GHRH or analog at time 0, was quantified by analytical HPLC, using one μ-Bondapak C18 column (10 μm particle size, 0.39×15 cm) (rat serum) or two C18 columns in series (human serum and plasma) and a binary solvent system composed of NaClO4 0.01 M, pH 2.5 and acetonitrile. A linear gradient from 30 to 60% acetonitrile over 45 min (rat serum) or 30 to 50% (human serum and plasma) was used. Elution of intact peptide was monitored at 214 nm and residual concentration determined by assessment of peak surface areas.

[3] = target: T2, hGHRH(1-44)-NH2 binding sites in rat anterior pituitary (Rattus norvegicus, UniProt Q02644); test: Relative binding affinity in rat anterior pituitary preparations, [125I-Tyr10]hGHRH(1-44)-NH2 radioligand; conditions: values compared to hGHRH(1-29)-NH2
T2 construct: from tissue; host or cells: anterior pituitary of 2-month old male Sprague Dawley rats
T2 sequence (Q02644 23-423 isoform Q02644-2 limits assumed): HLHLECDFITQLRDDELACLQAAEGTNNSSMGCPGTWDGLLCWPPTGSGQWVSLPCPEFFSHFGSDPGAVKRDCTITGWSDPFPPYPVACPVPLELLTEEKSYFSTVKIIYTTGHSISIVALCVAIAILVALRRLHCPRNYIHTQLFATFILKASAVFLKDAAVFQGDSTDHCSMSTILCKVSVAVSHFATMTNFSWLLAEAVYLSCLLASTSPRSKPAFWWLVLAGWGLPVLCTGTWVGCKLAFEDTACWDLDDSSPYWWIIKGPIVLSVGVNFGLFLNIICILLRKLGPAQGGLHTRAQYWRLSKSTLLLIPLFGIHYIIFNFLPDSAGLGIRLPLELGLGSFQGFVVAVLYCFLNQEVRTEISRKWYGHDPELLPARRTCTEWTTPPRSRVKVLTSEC
Source text: Initial selection of a candidate from the original 14 polysubstituted GHRH analogs described in the U.S. Pat. No. 5,854,216 was based upon in vitro data on receptor affinity in 2-month old male Sprague Dawley rat anterior pituitary preparations. The embodiments are based on the affinity of selected GHRH analogs for the human GHRH receptor (hGHRH-R) in baby hamster kidney (BHK) cells transfected with hGHRH-R, and on resistance to proteolysis in rat serum, human plasma or human serum. More precisely, the preferred drug candidates were selected, as compared to hGHRH(1-29)-NH2, for: i-their increased relative binding affinity to hGHRH(1-44)-NH2 binding sites in rat anterior pituitary in vitro as well as to hGHRH-R in BHK-expressing cells in vitro; and ii-their relative resistance to proteolysis in vitro.

[4] = In vitro proteolysis assay in human serum; type: in vitro ADME; conditions: human serum
Method: as §2

Canine Growth Hormone = test: In vivo GH secretion in a male Beagle dog, escalating SC doses, RIA; conditions: 0.01 mg/kg BW SC
Source text: In order to assess such use of the GHRH analogs, the following experiments were undertaken. […] The above GHRH analog is a variation of a synthetic acetate salt of an amidated synthetic 29-amino acid peptide that corresponds to the amino-terminal segment of the naturally-occurring human growth hormone—releasing hormone (GHRH) with four amino acid substitutions in positions 2, 10, 15, and 22.
Prior to administration, all dosing formulations were filtered using a 0.22 μm filter to ensure sterility. […] Dosing started at approximately the same time each day, commencing at 9:00 am ±30 minutes.
(§1) For pharmacodynamic investigations, blood samples (approximately 1.0 ml) were collected from the dog on each treatment day via a jugular venipuncture at the following time points: pre-dose, 7, 15, 22, 30, 45, and 60 minutes post dosing. All blood samples were collected into potassium EDTA tubes and centrifuged under refrigeration (2 to 8° C., 1500 g for 10 minutes).
Plasma GH was determined by Linco Diagnostic Services using their own kit. Linco's Porcine/Canine Growth Hormone radioimmunoassay kit (RIA) (PGH-46HK) has been developed to quantitate Growth Hormone in plasma, serum, and tissue culture media. It is a completely homologous assay since the antibody was raised against recombinant Porcine Growth Hormone and both the standard and tracer are prepared with recombinant Porcine Growth Hormone. Since the amino acid sequences of Porcine Growth Hormone and Canine Growth Hormone are identical, this assay developed for Porcine Growth Hormone measures Canine Growth Hormone levels with equal efficiency. All components are included (standards, antibody, tracer, quality controls, precipitating reagents and buffer) necessary to complete a RIA. The assay was conducted under the following conditions: overnight; equilibrium incubation at room temperature; sample volume: 100 μl serum, plasma, or cell culture media.

Rat Growth Hormone = test: In vivo GH secretion in adult female Sprague-Dawley rats, single SC or IV injection, RIA; conditions: 0.03 mg/kg BW IV
Method: In order to assess such use of the GHRH analogs, the following experiments were undertaken. More specially, the goal was to assess the pharmacodynamic and pharmacokinetic profiles and acute toxicity of GHRH analog #5 when administered once by subcutaneous or intravenous injection to female Sprague-Dawley rats followed by a 14-day observation period and the pharmacodynamic profile in a male Beagle dog when the GHRH analog was administered at escalating doses to the same dog by subcutaneous injection with at least 2-day washout period. The above GHRH analog is a variation of a synthetic acetate salt of an amidated synthetic 29-amino acid peptide that corresponds to the amino-terminal segment of the naturally-occurring human growth hormone—releasing hormone (GHRH) with four amino acid substitutions in positions 2, 10, 15, and 22.
Human GHRH analog #5 in 0.9% sodium chloride for injection USP was administered once either by intravenous (IV) or subcutaneous (SC) injection to female rats followed by a 14-day observation period, as shown in Table 2. Prior to administration, all dosing formulations were filtered using a 0.22 μm filter to ensure sterility. The actual amount of GHRH analog #5 administered was calculated and adjusted based on the animal's most recent body weight. Dosing started at approximately the same time each day, commencing at 9:00 am ±30 minutes.
as §1, with “1.3” for “1.0”, “2 animals per group per time point (maximum 3 time points/animal)” for “the dog on each treatment day”, “pre-dose, 7, 15, 22, 30, 45, and 60 minutes post dosing.” left out
Rat Growth Hormone Determination • Plasma GH was determined by Linco Diagnostic Services using their own kit. Linco's Rat Growth Hormone radioimmunoassay kit (RIA) (RGH-45HK) is intended for the quantitative determination of Rat Growth Hormone in serum, plasma, and tissue culture media. It is a completely homologous assay since the antibody was raised against recombinant Rat Growth Hormone and both the tracer and the standard are prepared with the same recombinant Rat Growth Hormone. The kit includes standards, antibody, tracer, quality controls, precipitating reagents and buffer necessary to complete a RIA. The assay was conducted under the following conditions: overnight; equilibrium incubation at room temperature; sample volume: 100 μl serum, plasma, or cell culture media. The label used was 125I-Rat Growth Hormone (20,000 CPM/tube).

- Relative binding affinity in rat anterior pituitary (relative to hGHRH(1-29)-NH2) (rat GHRH receptor (rat)): 5
- IC50 [1]: 37 nM
- Relative binding affinity (R1) in comparison with hGHRH(1-29)NH2 [1]: 0.05
Compound: [D-Ala2, Ala8, D-Tyr10, Ala15, D-Lys21, Lys22] hGHRH(1-29)-NH2 (peptide)

- Relative binding affinity in rat anterior pituitary (relative to hGHRH(1-29)-NH2) (rat GHRH receptor (rat)): 4.9
- IC50 [1]: 0.0063 nM
- Relative binding affinity (R1) in comparison with hGHRH(1-29)NH2 [1]: 239
Compound: [D-Ala2, D-Tyr10, Lys22] hGHRH(1-29)-NH2 (peptide)

- Relative binding affinity (R1) in hGHRH-R BHK-expressing cells (human GHRH receptor): 239 ± 55
- Relative resistance to proteolysis in vitro ([2]; compared to hGHRH(1-29)-NH2): 2.25
- Residual concentration (% of initial concentration) [2]: 100 ± 0 % of initial concentration
- Relative binding affinity in rat anterior pituitary [3]: 4.90 ± 2.70
Compound: CC[C@H](C)[C@H](NC(=O)[C@H](C)NC(=O)[C@H](CC(=O)O)NC(=O)[C@@H](C)NC(=O)[C@@H](N)Cc1ccc(O)cc1)C(=O)N[C@@H](Cc1ccccc1)C(=O)N[C@H](C(=O)N[C@@H](CC(N)=O)C(=O)N[C@@H](CO)C(=O)N[C@H](Cc1ccc(O)cc1)C(=O)N[C@@H](CCCNC(=N)N)C(=O)N[C@@H](CCCCN)C(=O)N[C@H](C(=O)N[C@@H](CC(C)C)C(=O)NCC(=O)N[C@@H](CCC(N)=O)C(=O)N[C@@H](CC(C)C)C(=O)N[C@@H](CO)C(=O)N[C@@H](C)C(=O)N[C@@H](CCCNC(=N)N)C(=O)N[C@@H](CCCCN)C(=O)N[C@@H](CCCCN)C(=O)N[C@@H](CC(C)C)C(=O)N[C@@H](CCC(N)=O)C(=O)N[C@@H](CC(=O)O)C(=O)N[C@H](C(=O)N[C@@H](CCSC)C(=O)N[C@@H](CO)C(=O)N[C@@H](CCCNC(=N)N)C(N)=O)[C@@H](C)CC)C(C)C)[C@@H](C)O [GHRH analog #3, [D-Ala^2, D-Tyr^10, Lys^22] hGHRH(1-29)-NH2] (H-Y[dA]DAIFTNS[dY]RKVLGQLSARKKLQDIMSR-NH2; N-terminus assumed)

- Relative binding affinity in rat anterior pituitary (relative to hGHRH(1-29)-NH2) (rat GHRH receptor (rat)): 13.3
- IC50 [1]: 0.033 nM
- Relative binding affinity (R1) in comparison with hGHRH(1-29)NH2 [1]: 499
Compound: [D-Ala2, Ala8, Ala15, Lys22] hGHRH(1-29)-NH2 (peptide)

- Relative binding affinity in rat anterior pituitary (relative to hGHRH(1-29)-NH2) (rat GHRH receptor (rat)): 7.74
- IC50 [1]: 0.77 nM
- Relative binding affinity (R1) in comparison with hGHRH(1-29)NH2 [1]: 3.7
Compound: [Ala8, Ala9, Ala15, Ala22] hGHRH(1-29)-NH2 (peptide)

- Residual concentration (% of initial concentration) [2]: 100 ± 0 % of initial concentration
- Mean residual amount (%) ([4]; IT 0 min): 100%
- Mean residual amount (%) ([4]; IT 420 min): disappeared totally
Compound: CC[C@H](C)[C@H](NC(=O)[C@H](C)NC(=O)[C@H](CC(=O)O)NC(=O)[C@H](C)NC(=O)[C@@H](N)Cc1ccc(O)cc1)C(=O)N[C@@H](Cc1ccccc1)C(=O)N[C@H](C(=O)N[C@@H](CC(N)=O)C(=O)N[C@@H](CO)C(=O)N[C@@H](Cc1ccc(O)cc1)C(=O)N[C@@H](CCCNC(=N)N)C(=O)N[C@@H](CCCCN)C(=O)N[C@H](C(=O)N[C@@H](CC(C)C)C(=O)NCC(=O)N[C@@H](CCC(N)=O)C(=O)N[C@@H](CC(C)C)C(=O)N[C@@H](CO)C(=O)N[C@@H](C)C(=O)N[C@@H](CCCNC(=N)N)C(=O)N[C@@H](CCCCN)C(=O)N[C@@H](CC(C)C)C(=O)N[C@@H](CC(C)C)C(=O)N[C@@H](CCC(N)=O)C(=O)N[C@@H](CC(=O)O)C(=O)N[C@H](C(=O)N[C@@H](CCSC)C(=O)N[C@@H](CO)C(=O)N[C@@H](CCCNC(=N)N)C(N)=O)[C@@H](C)CC)C(C)C)[C@@H](C)O [hGHRH(1-29)NH2, reference compound]

Compound: hGHRH(1-44)NH2 [reference compound]
- Canine Growth Hormone (Canine Growth Hormone; 0 min): 5 ng/mL
- Canine Growth Hormone (Canine Growth Hormone; 7 min): 1 ng/mL
- Canine Growth Hormone (Canine Growth Hormone; 15 min): 1.99 ng/mL
- Canine Growth Hormone (Canine Growth Hormone; 22 min): 4 ng/mL
- Canine Growth Hormone (Canine Growth Hormone; 30 min): 5 ng/mL
- Canine Growth Hormone (Canine Growth Hormone; 45 min): 3 ng/mL
- Canine Growth Hormone (Canine Growth Hormone; 60 min): 1.99 ng/mL
- Plasma Rat Growth Hormone (Rat Growth Hormone; 4 min): 43.7 ng/mL
- Plasma Rat Growth Hormone (Rat Growth Hormone; 10 min): 83.9 ng/mL
- Plasma Rat Growth Hormone (Rat Growth Hormone; 15 min): 27.9 ng/mL
- Plasma Rat Growth Hormone (Rat Growth Hormone; 45 min): 14.1 ng/mL
- Plasma Rat Growth Hormone (Rat Growth Hormone; 300 min): 21.7 ng/mL
- GH AUC 45 min (Rat Growth Hormone; in ng·min/mL (unit assumed)): 1380
- GH AUC 300 min (Rat Growth Hormone; in ng·min/mL (unit assumed)): 5754
- Plasma Rat Growth Hormone (Rat Growth Hormone; −120 min): 20.2 ng/mL
